According to ChEMBL document CHEMBL1201862, “PubChem BioAssay data set” (2004):
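These data come from cells grown in 96-well plates and exposed to compound for 48 hours at five concentrations. GI50 = concentration required for 50% inhibition of growth.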 Calls of active or inactive are those of the source. Rule as the data show it: active = GI50 up to about 1.1 µM and inactive = higher.

Experiments:
Test in all cases: NCI tumour cell line growth inhibition, 48 h
SR = test system: SR
HOP-62 = test system: HOP-62
TK-10 = test system: TK-10
NCI-H23 = test system: NCI-H23
MOLT-4 = test system: MOLT-4
CCRF-CEM = test system: CCRF-CEM
UO-31 = test system: UO-31
HL-60 = test system: HL-60
OVCAR-4 = test system: OVCAR-4
NCI-H226 = test system: NCI-H226
IGROV-1 = test system: IGROV-1
SN12C = test system: SN12C
SF-539 = test system: SF-539
OVCAR-5 = test system: OVCAR-5
SK-MEL-28 = test system: SK-MEL-28

SMILES	GI50 (SR)	GI50 (HOP-62)	GI50 (TK-10)	GI50 (NCI-H23)	GI50 (MOLT-4)	GI50 (CCRF-CEM)	GI50 (UO-31)	GI50 (HL-60)	GI50 (OVCAR-4)	GI50 (NCI-H226)	GI50 (IGROV-1)	GI50 (SN12C)	GI50 (SF-539)	GI50 (OVCAR-5)	GI50 (SK-MEL-28)
O=C1c2ccccc2C(=O)N1C/C=N/NS(=O)(=O)c1ccc(Cl)cc1	> 100 µM (inactive)	> 100 µM (inactive)	> 100 µM (inactive)	> 100 µM (inactive)	> 100 µM (inactive)	> 100 µM (inactive)	> 100 µM (inactive)	> 100 µM (inactive)	> 100 µM (inactive)	31.7 µM (inactive)	> 100 µM (inactive)	> 100 µM (inactive)	> 100 µM (inactive)	–	–
O=C(O)/C(=C\c1ccccc1Cl)S(=O)(=O)c1ccccc1	> 10 µM (inactive)	> 100 µM (inactive)	> 100 µM (inactive)	–	> 100 µM (inactive)	14.5 µM (inactive)	> 100 µM (inactive)	> 100 µM (inactive)	> 100 µM (inactive)	–	> 100 µM (inactive)	> 100 µM (inactive)	> 100 µM (inactive)	> 100 µM (inactive)	–
CCOC(=O)NC1C2CC(=O)OC(O2)C1OC(C)=O (configuration not stated)	> 100 µM (inactive)	> 100 µM (inactive)	> 100 µM (inactive)	> 100 µM (inactive)	> 100 µM (inactive)	> 100 µM (inactive)	60.7 µM (inactive)	–	> 100 µM (inactive)	0.424 µM (active)	59.7 µM (inactive)	99.3 µM (inactive)	> 100 µM (inactive)	> 100 µM (inactive)	> 100 µM (inactive)
CCCCCCCCCCCCCC(=O)O[C@H]1CC[C@H](NC(=O)[C@H](OC)[C@H](O)[C@@H](O)[C@H](O)/C=C/C(C)C)C(=O)N(C)C1 [BENGAMIDE B]	0.0021 µM (active)	0.00809 µM (active)	0.179 µM (active)	0.00977 µM (active)	0.00643 µM (active)	0.0122 µM (active)	0.0208 µM (active)	0.01 µM (active)	0.014 µM (active)	0.00592 µM (active)	0.00235 µM (active)	0.00419 µM (active)	0.0108 µM (active)	4.65 µM (inactive)	0.0113 µM (active)
COc1ccc2cc3n(c2c1)CCc1cc(OC)c(OC)cc1-3	–	> 100 µM (inactive)	> 100 µM (inactive)	> 100 µM (inactive)	> 100 µM (inactive)	> 100 µM (inactive)	> 100 µM (inactive)	> 100 µM (inactive)	45.9 µM (inactive)	> 100 µM (inactive)	> 100 µM (inactive)	> 100 µM (inactive)	> 100 µM (inactive)	–	> 100 µM (inactive)
O=C(NOC(=O)c1ccc([N+](=O)[O-])cc1)c1ccc(Cl)cc1	> 100 µM (inactive)	> 100 µM (inactive)	–	> 100 µM (inactive)	20.4 µM (inactive)	28.2 µM (inactive)	23.8 µM (inactive)	15.8 µM (inactive)	88.9 µM (inactive)	–	21.4 µM (inactive)	62.4 µM (inactive)	> 100 µM (inactive)	> 100 µM (inactive)	> 100 µM (inactive)
CCOC(=O)COc1cccc2c1C(=O)CCO2	–	> 100 µM (inactive)	> 100 µM (inactive)	> 100 µM (inactive)	> 100 µM (inactive)	> 100 µM (inactive)	> 100 µM (inactive)	> 100 µM (inactive)	> 100 µM (inactive)	–	> 100 µM (inactive)	> 100 µM (inactive)	> 100 µM (inactive)	> 100 µM (inactive)	> 100 µM (inactive)
c1ccc2c(OCCSCCCCCCCCCCSCCOc3cccc4ccccc34)cccc2c1	–	> 100 µM (inactive)	> 100 µM (inactive)	> 100 µM (inactive)	> 100 µM (inactive)	> 100 µM (inactive)	> 100 µM (inactive)	> 100 µM (inactive)	–	> 100 µM (inactive)	> 100 µM (inactive)	> 100 µM (inactive)	> 100 µM (inactive)	> 100 µM (inactive)	> 100 µM (inactive)
C/C(=C\Cc1cc(O)ccc1O)CCc1c(C)c(O)c(O)c(C=O)c1C [PANICEIN C]	7.38 µM (inactive)	–	48.2 µM (inactive)	18.4 µM (inactive)	17.1 µM (inactive)	3.28 µM (inactive)	28.2 µM (inactive)	> 100 µM (inactive)	26.5 µM (inactive)	34.5 µM (inactive)	17.1 µM (inactive)	26.7 µM (inactive)	18.4 µM (inactive)	–	18.1 µM (inactive)
C/C=C/C1(NS(=O)(=O)c2ccc(C)cc2)CCC(C(C)(C)C)CC1 (configuration not stated)	13.6 µM (inactive)	22 µM (inactive)	35.8 µM (inactive)	18.8 µM (inactive)	16.5 µM (inactive)	19.5 µM (inactive)	25.4 µM (inactive)	23.4 µM (inactive)	23 µM (inactive)	20.6 µM (inactive)	28.8 µM (inactive)	18.2 µM (inactive)	21.4 µM (inactive)	20.7 µM (inactive)	–
Nc1ccc2nc(NCc3ccc(F)cc3)cnc2c1	66.7 µM (inactive)	> 100 µM (inactive)	> 100 µM (inactive)	> 100 µM (inactive)	50.1 µM (inactive)	> 100 µM (inactive)	21.3 µM (inactive)	54.1 µM (inactive)	> 100 µM (inactive)	> 100 µM (inactive)	> 100 µM (inactive)	> 100 µM (inactive)	79.3 µM (inactive)	> 100 µM (inactive)	> 100 µM (inactive)
COc1ccc(CC2NCCc3cc(OC)c(OC)cc32)cc1 (configuration not stated)	> 100 µM (inactive)	> 100 µM (inactive)	> 100 µM (inactive)	> 100 µM (inactive)	> 100 µM (inactive)	> 100 µM (inactive)	> 85.3 µM (inactive)	> 100 µM (inactive)	> 100 µM (inactive)	> 100 µM (inactive)	> 100 µM (inactive)	> 100 µM (inactive)	> 100 µM (inactive)	> 100 µM (inactive)	> 100 µM (inactive)
CS(=O)(=O)NNS(=O)(=O)c1ccccc1	> 100 µM (inactive)	> 100 µM (inactive)	> 100 µM (inactive)	> 100 µM (inactive)	> 100 µM (inactive)	> 100 µM (inactive)	> 100 µM (inactive)	> 100 µM (inactive)	> 100 µM (inactive)	> 100 µM (inactive)	> 100 µM (inactive)	> 100 µM (inactive)	> 100 µM (inactive)	–	–
COc1cccc(C2N3CCCCC3[C@@H]3c4[nH]c5ccccc5c4CCN23)c1OC (some centres not stated)	–	15.9 µM (inactive)	19.3 µM (inactive)	16.9 µM (inactive)	17.5 µM (inactive)	17.3 µM (inactive)	14.9 µM (inactive)	15.1 µM (inactive)	17.7 µM (inactive)	–	18.2 µM (inactive)	16.9 µM (inactive)	15 µM (inactive)	15.9 µM (inactive)	16.8 µM (inactive)
C[C@@H](NC1CCCC[C@H]1O)c1ccccc1 (some centres not stated)	–	> 100 µM (inactive)	> 100 µM (inactive)	> 100 µM (inactive)	> 100 µM (inactive)	> 100 µM (inactive)	> 100 µM (inactive)	> 100 µM (inactive)	> 100 µM (inactive)	> 100 µM (inactive)	> 100 µM (inactive)	> 100 µM (inactive)	> 100 µM (inactive)	–	> 100 µM (inactive)
CCCCNS(=O)(=O)c1ccc(-c2ccc3c(c2)-c2ccc(S(=O)(=O)NCCCC)cc2S3(=O)=O)cc1	72.1 µM (inactive)	14.9 µM (inactive)	28.8 µM (inactive)	12.7 µM (inactive)	> 100 µM (inactive)	26.1 µM (inactive)	42.5 µM (inactive)	> 100 µM (inactive)	2.65 µM (inactive)	12.6 µM (inactive)	32.8 µM (inactive)	–	12.1 µM (inactive)	> 100 µM (inactive)	10 µM (inactive)
[N-]=[N+]=NCC(O)Cn1cnc2c(NC(=O)c3ccccc3)ncnc21 (configuration not stated)	–	> 100 µM (inactive)	> 100 µM (inactive)	> 100 µM (inactive)	> 100 µM (inactive)	> 100 µM (inactive)	> 100 µM (inactive)	> 100 µM (inactive)	> 100 µM (inactive)	> 100 µM (inactive)	> 100 µM (inactive)	> 100 µM (inactive)	> 100 µM (inactive)	> 100 µM (inactive)	> 100 µM (inactive)
Cc1c2nc3ccccc3sc-2cc(=O)c1C	> 10 µM (inactive)	> 100 µM (inactive)	> 100 µM (inactive)	10.3 µM (inactive)	34.5 µM (inactive)	20.9 µM (inactive)	36 µM (inactive)	14.1 µM (inactive)	65.3 µM (inactive)	> 100 µM (inactive)	> 56.2 µM (inactive)	> 10 µM (inactive)	44.9 µM (inactive)	> 95.5 µM (inactive)	–
CC/C(=N/O)c1ccc2[nH]c3c(C)cc([N+](=O)[O-])c(C)c3c2c1	24.4 µM (inactive)	44 µM (inactive)	15.2 µM (inactive)	82.4 µM (inactive)	29.6 µM (inactive)	15.1 µM (inactive)	57.8 µM (inactive)	12.7 µM (inactive)	87.9 µM (inactive)	> 100 µM (inactive)	–	76.2 µM (inactive)	51.5 µM (inactive)	> 100 µM (inactive)	> 100 µM (inactive)
O=C(CC(=O)c1cccc([N+](=O)[O-])c1)C(=O)Nc1ccccc1	–	> 100 µM (inactive)	> 100 µM (inactive)	> 100 µM (inactive)	> 100 µM (inactive)	> 100 µM (inactive)	> 100 µM (inactive)	> 100 µM (inactive)	> 100 µM (inactive)	> 100 µM (inactive)	> 100 µM (inactive)	> 100 µM (inactive)	> 100 µM (inactive)	> 100 µM (inactive)	> 100 µM (inactive)
